From ChEMBL document CHEMBL3217419, “Blockage of collagen binding to integrin 21: structureactivity relationship of proteinprotein interaction inhibitors” (Medchemcomm, 2011)

Tests used:
Integrin alpha-1 = target: T1, Integrin alpha-1 (Homo sapiens, UniProt P56199); experiment: Inhibition of human alpha1 integrin expressed in CHO cells binding to collagen I after 2 hrs by cell-adhesion-based WST-1 assay
T1 sequence (P56199 whole entry): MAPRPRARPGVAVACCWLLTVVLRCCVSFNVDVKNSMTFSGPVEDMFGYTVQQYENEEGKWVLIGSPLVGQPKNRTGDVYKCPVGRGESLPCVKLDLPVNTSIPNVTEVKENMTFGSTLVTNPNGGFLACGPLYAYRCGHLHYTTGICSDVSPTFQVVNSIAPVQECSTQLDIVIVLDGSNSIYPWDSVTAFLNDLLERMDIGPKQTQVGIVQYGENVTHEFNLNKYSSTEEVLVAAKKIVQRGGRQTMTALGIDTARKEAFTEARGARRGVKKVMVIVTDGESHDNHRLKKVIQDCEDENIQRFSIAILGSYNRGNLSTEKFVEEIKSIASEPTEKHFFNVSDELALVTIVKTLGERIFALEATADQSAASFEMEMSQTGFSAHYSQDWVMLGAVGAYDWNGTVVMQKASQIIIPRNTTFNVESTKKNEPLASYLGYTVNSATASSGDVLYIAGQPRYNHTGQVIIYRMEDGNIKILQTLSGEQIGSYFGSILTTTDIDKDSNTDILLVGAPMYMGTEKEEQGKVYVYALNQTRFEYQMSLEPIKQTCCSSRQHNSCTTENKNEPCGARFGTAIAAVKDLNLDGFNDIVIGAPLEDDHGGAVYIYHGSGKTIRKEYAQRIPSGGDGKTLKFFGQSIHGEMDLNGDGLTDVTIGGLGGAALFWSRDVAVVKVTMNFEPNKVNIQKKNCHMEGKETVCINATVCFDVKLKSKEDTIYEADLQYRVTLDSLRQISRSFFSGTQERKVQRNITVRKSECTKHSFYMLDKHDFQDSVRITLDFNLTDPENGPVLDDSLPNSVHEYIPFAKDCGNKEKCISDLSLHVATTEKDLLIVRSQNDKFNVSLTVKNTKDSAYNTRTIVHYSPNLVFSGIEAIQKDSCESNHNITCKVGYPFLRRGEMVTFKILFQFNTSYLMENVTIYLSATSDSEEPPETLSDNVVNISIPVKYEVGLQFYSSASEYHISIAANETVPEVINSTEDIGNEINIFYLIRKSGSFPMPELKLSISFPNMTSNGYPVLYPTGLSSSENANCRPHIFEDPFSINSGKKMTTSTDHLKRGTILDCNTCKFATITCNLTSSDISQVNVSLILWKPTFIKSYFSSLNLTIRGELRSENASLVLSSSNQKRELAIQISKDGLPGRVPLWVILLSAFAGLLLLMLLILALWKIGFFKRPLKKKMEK

[1] = target: Integrin alpha-1 (Homo sapiens) (UniProt P56199); experiment: Inhibition of human alpha1 integrin expressed in CHO cells binding to collagen I at 50 uM after 2 hrs by cell-adhesion-based WST-1 assay
[2] = target: Integrin alpha-1 (Homo sapiens) (UniProt P56199); experiment: Inhibition of human alpha1 integrin expressed in CHO cells binding to collagen I at 100 uM after 2 hrs by cell-adhesion-based WST-1 assay relative to control
CHO [3] = experiment: Cytotoxicity against CHO cells assessed as release of lactate dehydrogenase by resazurin assay; format: cell-based, Cricetulus griseus; conditions: chinese hamster
CHO [4] = experiment: Selectivity ratio of EC50 for human alpha2 integrin expressed in CHO cells binding to collagen IV to EC50 for human alpha1 integrin expressed in CHO cells binding to collagen I; format: cell-based
[5] = Lipophilicity, log P of the compound; format: physicochemical; conditions: octanol/water
Integrin alpha2/beta1 = Integrin alpha2/beta1 (Homo sapiens, UniProt P05556+P17301); experiment: Binding affinity to alpha2beta1 integrin (unknown origin); format: protein-complex assay
Sequence of Integrin alpha2/beta1 (P05556 whole entry): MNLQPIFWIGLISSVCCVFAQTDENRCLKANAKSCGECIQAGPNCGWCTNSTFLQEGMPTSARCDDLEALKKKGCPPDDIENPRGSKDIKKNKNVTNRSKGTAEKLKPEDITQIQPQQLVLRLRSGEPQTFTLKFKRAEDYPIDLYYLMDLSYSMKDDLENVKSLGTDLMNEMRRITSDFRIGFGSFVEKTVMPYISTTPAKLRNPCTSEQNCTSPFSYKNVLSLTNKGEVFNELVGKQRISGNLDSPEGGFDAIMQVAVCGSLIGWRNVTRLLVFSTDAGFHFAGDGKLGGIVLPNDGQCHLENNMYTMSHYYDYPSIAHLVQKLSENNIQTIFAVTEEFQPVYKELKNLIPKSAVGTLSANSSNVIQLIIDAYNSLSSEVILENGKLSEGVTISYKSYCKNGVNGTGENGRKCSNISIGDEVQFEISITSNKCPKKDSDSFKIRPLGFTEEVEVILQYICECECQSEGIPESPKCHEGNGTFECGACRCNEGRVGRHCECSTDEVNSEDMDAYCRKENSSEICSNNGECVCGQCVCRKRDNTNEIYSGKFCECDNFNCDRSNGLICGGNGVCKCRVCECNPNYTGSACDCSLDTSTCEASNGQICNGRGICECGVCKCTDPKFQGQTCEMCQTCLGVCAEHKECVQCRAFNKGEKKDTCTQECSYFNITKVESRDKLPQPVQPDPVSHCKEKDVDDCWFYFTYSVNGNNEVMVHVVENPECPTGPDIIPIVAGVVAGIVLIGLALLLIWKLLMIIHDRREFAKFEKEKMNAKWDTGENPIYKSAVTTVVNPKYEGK
Sequence of Integrin alpha2/beta1 (P17301 whole entry): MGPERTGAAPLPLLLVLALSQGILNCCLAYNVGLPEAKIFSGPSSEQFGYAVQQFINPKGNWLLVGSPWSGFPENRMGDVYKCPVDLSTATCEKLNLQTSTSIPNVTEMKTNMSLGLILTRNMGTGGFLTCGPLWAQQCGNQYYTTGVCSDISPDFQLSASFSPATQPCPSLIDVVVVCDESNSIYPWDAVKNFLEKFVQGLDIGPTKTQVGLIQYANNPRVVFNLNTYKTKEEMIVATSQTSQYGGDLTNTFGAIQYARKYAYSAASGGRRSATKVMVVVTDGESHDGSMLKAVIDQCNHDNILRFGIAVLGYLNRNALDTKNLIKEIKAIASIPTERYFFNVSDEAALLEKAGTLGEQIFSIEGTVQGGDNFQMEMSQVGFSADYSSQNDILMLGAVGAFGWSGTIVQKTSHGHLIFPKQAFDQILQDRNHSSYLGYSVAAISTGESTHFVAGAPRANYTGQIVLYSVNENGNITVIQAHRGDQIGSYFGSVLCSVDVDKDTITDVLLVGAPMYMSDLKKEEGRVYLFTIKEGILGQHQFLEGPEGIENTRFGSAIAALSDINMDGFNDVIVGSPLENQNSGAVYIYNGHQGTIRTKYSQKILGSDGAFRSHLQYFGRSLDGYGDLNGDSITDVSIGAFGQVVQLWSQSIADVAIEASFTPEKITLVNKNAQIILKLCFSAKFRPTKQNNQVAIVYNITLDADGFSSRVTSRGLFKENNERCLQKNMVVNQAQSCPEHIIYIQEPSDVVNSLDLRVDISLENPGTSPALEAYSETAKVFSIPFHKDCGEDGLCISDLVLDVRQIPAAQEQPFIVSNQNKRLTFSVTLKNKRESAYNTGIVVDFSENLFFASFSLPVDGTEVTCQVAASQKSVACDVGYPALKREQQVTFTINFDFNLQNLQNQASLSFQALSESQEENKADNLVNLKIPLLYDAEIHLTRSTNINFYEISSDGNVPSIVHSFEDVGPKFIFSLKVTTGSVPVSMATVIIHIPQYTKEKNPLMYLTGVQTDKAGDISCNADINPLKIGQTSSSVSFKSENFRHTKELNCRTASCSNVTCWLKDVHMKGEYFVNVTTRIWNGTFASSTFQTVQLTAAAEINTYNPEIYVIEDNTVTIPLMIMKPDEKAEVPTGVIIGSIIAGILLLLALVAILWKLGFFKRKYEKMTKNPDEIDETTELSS

Row | SMILES | EC50 (Integrin alpha-1) | inhibition [1] [%] | Imax [2] [%] | Activity (CHO [3]) | Ratio EC50 (CHO [4]) | logP [5] | EC50 (Integrin alpha2/beta1) [nM]
1 | CN(c1ccc(C(=O)c2ccccc2)cc1)S(=O)(=O)c1ccc(Cl)cc1Cl | Not Active | 0 |  |  |  |  | 
2 | CN(c1ccc2c(c1)C(=O)c1ccccc1-2)S(=O)(=O)c1ccc(Cl)cc1Cl | Not Active | 0 |  |  |  |  | 
3 | O=C(c1ccccc1)c1ccc(NS(=O)(=O)c2ccc(I)cc2)cc1 |  | 85 | 85 | <= 200 uM | 1.3 |  | 
4 | O=C(c1ccccc1)c1ccc(OS(=O)(=O)c2cc(Cl)cc(Cl)c2O)cc1 |  | 86 | 95 | <= 100 uM | 2.8 | 3.1 | 
5 | CN(c1cccc(C(=O)c2ccccc2)c1)S(=O)(=O)c1ccc(Cl)cc1Cl | Not Active | 8 |  |  |  |  | 
6 | O=C(c1ccccc1)c1cccc(NS(=O)(=O)c2ccccc2)c1 | Not Active | 4 |  | <= 200 uM |  |  | 
7 | O=C(c1ccccc1)c1ccc(NS(=O)(=O)c2cccc(-c3ccc(F)cc3)c2)cc1 |  |  |  |  |  |  | 2000
8 | O=C(c1ccccc1)c1ccc(NS(=O)(=O)c2ccc(Cl)cc2Cl)cc1 |  | 82 | 82 | <= 20 uM | 1.5 | 3.5 | 
9 | O=C(c1ccccc1)c1ccc(NS(=O)(=O)c2ccc(Br)cc2)cc1 | Not Active | 34 | 34 | <= 200 uM |  |  | 
10 | O=C1c2ccccc2-c2ccc(NS(=O)(=O)c3ccc(Cl)cc3Cl)cc21 |  | 93 | 93 | <= 200 uM | 1.2 |  | 
11 | Cc1ccc(S(=O)(=O)Nc2cccc(C(=O)c3ccccc3)c2)cc1 | Not Active | 34 | 34 | <= 200 uM |  |  | 
12 | CC(=O)c1cccc(NS(=O)(=O)c2ccc(Cl)cc2Cl)c1 | Not Active | 0 |  |  |  |  | 
13 | O=C(c1ccccc1)c1ccc(OS(=O)(=O)c2ccc(Cl)cc2Cl)cc1 | Not Active | 0 |  |  |  |  | 
14 | Cc1ccc(S(=O)(=O)Nc2ccc(C(=O)c3ccccc3)cc2)cc1 | Not Active | 35 | 35 | <= 200 uM |  |  | 
15 | O=C(c1ccccc1)c1cccc(NS(=O)(=O)c2ccc(Br)cc2)c1 |  | 92 | 96 | <= 200 uM | 2.2 |  | 
16 | O=C(c1ccccc1)c1cccc(NS(=O)(=O)c2ccc(I)cc2)c1 |  | 72 | 72 | <= 200 uM |  |  | 
17 | O=C(c1ccccc1)c1cccc(NS(=O)(=O)c2ccc(Cl)cc2Cl)c1 |  | 69 | 69 | <= 200 uM | 3 |  | 
18 | O=S(=O)(Nc1ccc2c(c1)Cc1ccccc1-2)c1ccc(Cl)cc1Cl |  | 70 | 87 | <= 200 uM | 0.8 | 4.1 | 
19 | O=C(c1ccccc1)c1ccc(NS(=O)(=O)c2ccccc2)cc1 | Not Active | 0 |  | <= 200 uM |  |  | 
